Source: patent publication US20080096858A1, “Method of Stabilizing Disordered Cefovecin Sodium Salt” (UNIVERSITY OF CONNECTICUT, priority 2004, published 2008)

Experiments:
[1] = annealed at 60° C.; stability study at 25 and 40° C.; cited from earlier work
[2] = Storage stability at 40° C. for 6 months of cefovecin sodium salt annealed at 60° C., monitored by RP-HPLC (Example 2)
Description: (§1) Reverse Phase High Performance Liquid Chromatography (RP-HPLC) was used to monitor degradation of cefovecin sodium salt. HPLC was carried out with a Waters Alliance (Milford, Mass.) system with a UV detector set at 256 nm and a Kromasil C4 column 4.6×250 mm, 5 μm, 100 angstrom pore size (Waters, Milford, Mass.). Column temperature was 30±2° C. and the samples were maintained in the auto sampler at 5±3° C. and the flow rate was 1 mL/min. Gradient method was used with mobile phase A consisting of (9:1) 0.025M sodium phosphate buffer solution, pH 6.5: acetonitrile in HPLC grade water, and mobile phase B consisting of (4:6) 0.025M sodium phosphate buffer solution, pH 6.5: acetonitrile in HPLC grade water.
(§2) The lyophilized cake was dissolved in WFI, and the solution was injected into the HPLC column. Contents of cefovecin sodium salt and a main degradant with relative retention time of approximately 1.6 were calculated as Ac/ΣAi, where Ac is the peak area of either cefovecin sodium salt or the degradant, and ΣAi is a total area of all chromatographic peaks. […] Stability data obtained for two annealed samples and the control sample are graphically illustrated in FIG. 1.
Amorphous lyophilized cefovecin sodium salt was annealed in sealed vials at 60° C. for 300 min in a contract lab, UCONN, Storrs, Conn. Untreated samples (control), and annealed samples were placed on stability at 40° C. for 6 months. Reverse Phase High Performance Liquid Chromatography was used to monitor degradation as described in Example 1.

[3] = Storage stability at 40° C. of cefovecin sodium salt annealed at 75° C., monitored by RP-HPLC (Example 1); settings: for relative rate constant k/k0 / degradation rate constant k: storage at 40° C.; for degradation rate constant k: zero-order model, SD in ( )
Description: Cefovecin sodium salt was dissolved in WFI at a concentration of 200 mg cefovecin sodium salt/ml. This solution was filtered using 0.22μ sterilized filters. 4.25 ml of this solution was volumetrically filled in the laminar flow hood into a 20-ml Flint Type I Tubular Treated Vials. 20 mm Lyophile D777-1, B2TR FluoroTec Single Vent Stoppers were partially inserted in the vials. The vials were lyophilized using Vertis freeze dryer (Gardiner, N.Y.) using the following cycle: frozen at −40° C. followed by vacuum drying at the shelf temperature of −18° C. for approximately 42 hours, and 60 millitore vacuum; secondary dried at a temperature of 40° C. for approximately 12 hours and 60 millitore vacuum. The lyophilizer chamber was back flushed with nitrogen and the vials were capped and sealed with aluminum shells.
Amorphous lyophilized cefovecin sodium salt was annealed in sealed vials at 75° C. for 20 and 60 min. The sealed vials with untreated cefovecin sodium salt (control), and vials with annealed cefovecin sodium salt were stored at 40° C. at ambient humidity for 6 and 12 weeks.
as §1, §2
In addition, relative rate constants, k/k0 (where k0 is the rate constant of the control) were calculated in relation to control. The k/k0 are plotted in FIG. 2 as a function of annealing time at 75° C.

[4] = Physical form (crystallization) during thermal treatment; type: physicochemical; settings: thermal treatment according to the invention; material remained amorphous
[5] = HPLC purity of thermally treated freeze-dried cefovecin sodium salt (Example 3, Table 3)
Description: as §1, §2
A freeze-dried formulation that contains cefovecin sodium salt was prepared as follows. Cefovecin sodium salt was dissolved in citrate buffer at pH 6.7. […] The solution contained 200 mg/ml of cefovecin sodium salt, 50 mM citrate buffer, 4.5 mg/ml methylparaben, and 0.5 mg/ml propylparaben. The solution was filled in 20 ml glass vials, 4.25 ml/vial. The vials were partially stoppered with single-vent D777-1 and loaded into a freeze-drier (Hull 450 FXS800S, Warminster, Pa.). The solution was frozen at −40° C. followed by primary drying at the shelf temperature of −10° C. and approximately 200 millitore vacuum; after the product temperature approached −12° C., secondary drying was performed at shelf temperature 40° C. for approximately 12 hours and 200 millitore vacuum. Lyophilized cefovecin sodium salt was prepared in a contract facility, SmithKline Beecham Corporation, Conshocken, Pa. […] The lyophilized samples were annealed in sealed vials at 160° C. for 120 min and 170° C./45 min. The untreated samples (control), and annealed samples were tested by HPLC; HPLC conditions are described in Example 1.

[6] = after storage 6 months at 40° C., annealed at 60° C.
[7] = after storage 12 weeks at 40° C., ambient humidity, annealed at 75° C.
[8] = 0 min annealing at 75° C. (control)

## CO[C@@]1(NC(=O)C(C(=O)[O-])c2ccc(O)cc2)C(=O)N2C(C(=O)[O-])=C(CSc3nnnn3C)COC21.[Na+].[Na+] (some centres unmarked) [moxalactam, moxalactam (di-sodium salt)]
[1]
  rate of decarboxylation of annealed sample compared with control: lower

## CO/N=C(\C(=O)N[C@@H]1C(=O)N2C(C(=O)[O-])=C([C@@H]3CCCO3)CS[C@H]12)c1csc(N)n1.[Na+] [cefovecin sodium salt]
[2]; [6]
  dimer level of annealed sample compared with control: lower
  purity of annealed sample compared with control: higher
[2]; annealed 60° C. 300 min, 0 months at 40° C.
  purity (cefovecin sodium salt): 98.11 area %
[2]; annealed 60° C. 300 min, 6 months at 40° C.
  purity (cefovecin sodium salt): 96.49 area %
[2]; annealing at 60° C.
  effect of annealing on stability: increased the stability
[2]; control (not annealed), 0 months at 40° C.
  purity (cefovecin sodium salt): 98.35 area %
[2]; control (not annealed), 6 months at 40° C.
  purity (cefovecin sodium salt): 96.35 area %
[3]; [7]
  dimer level of annealed samples compared with control: lower
  overall purity of annealed samples compared with control: higher
[3]; annealing 20 and 60 min at 75° C., lower purity, higher dimer
  degradation caused by annealing (initial time points): some degradation
[3]; annealing at 75° C.
  effect of annealing on stability: increased the stability
[3]; [8]
  relative rate constant k/k0: 1.00
  degradation rate constant k: −0.12 (0.01) %/week
[3]; annealed 20 min at 75° C.
  relative rate constant k/k0: 0.82
  degradation rate constant k: −0.095 (0.006) %/week
[3]; annealed 60 min at 75° C.
  relative rate constant k/k0: 0.71
  degradation rate constant k: −0.082 (0.005) %/week
[4]
  crystallization during thermal treatment: did not occur
[5]; after annealing 60° C./300 min (Example 2)
  Purity: 98.1 area %
[5]; after annealing 75° C./20 min (Example 1)
  Purity: 97.5 area %
[5]; after annealing 75° C./60 min (Example 1)
  Purity: 97.5 area %
[5]; after annealing 160° C./120 minutes, freeze-dried formulation with citrate buffer, methylparaben, propylparaben (Example 3)
  Purity: 69.8 area %
[5]; after annealing 170° C./45 minutes, freeze-dried formulation with citrate buffer, methylparaben, propylparaben (Example 3)
  Purity: 70.3 area %
[5]; annealing at 160° C. and 170° C.
  degradation caused by annealing: unacceptable levels of degradation
[5]; treatment at both 160° C. and 170° C.
  degradation caused by thermal treatment compared with examples 1 and 2: significant degradation
